This is an account of results in patent US20260125400A1, “TYK2 DEGRADERS AND USES THEREOF” (Kymera Therapeutics, Inc., priority 2023, published 2026).

In this experiment the target is T1, TYK2 (Homo sapiens, UniProt P29597).
T1 construct: Degradation of TYK2 in cells was quantitatively measured using Meso Scale Discovery (MSD) technology; endogenous in cells; host or cells: OCI-LY10
In words: TYK2 MSD degradation in OCI-LY10 cells. It counts as cell-based. Particulars: 4 to 24 hours incubation; for DC50: read-out: TYK2 MSD OCI-LY10 Rel-DC50. A digest of the protocol:
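OCI-LY10 cells were treated with 9-dose 1:3 series (top 1 to 10 μM final) for 4 to 24 hours at 37° C. Lysate TYK2 quantified by MSD sandwich immunoassay; DC50 and Dmax from four-parameter inhibitor vs. response fit.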

Setting [1] is: TYK2 degradation in OCI-LY10 cells.

The structures appear in SMILES notation. Like-named read-outs stand apart in the source and are kept apart here. Where only a bound is given, the exact number is not on record here.

T1 sequence (P29597 whole entry): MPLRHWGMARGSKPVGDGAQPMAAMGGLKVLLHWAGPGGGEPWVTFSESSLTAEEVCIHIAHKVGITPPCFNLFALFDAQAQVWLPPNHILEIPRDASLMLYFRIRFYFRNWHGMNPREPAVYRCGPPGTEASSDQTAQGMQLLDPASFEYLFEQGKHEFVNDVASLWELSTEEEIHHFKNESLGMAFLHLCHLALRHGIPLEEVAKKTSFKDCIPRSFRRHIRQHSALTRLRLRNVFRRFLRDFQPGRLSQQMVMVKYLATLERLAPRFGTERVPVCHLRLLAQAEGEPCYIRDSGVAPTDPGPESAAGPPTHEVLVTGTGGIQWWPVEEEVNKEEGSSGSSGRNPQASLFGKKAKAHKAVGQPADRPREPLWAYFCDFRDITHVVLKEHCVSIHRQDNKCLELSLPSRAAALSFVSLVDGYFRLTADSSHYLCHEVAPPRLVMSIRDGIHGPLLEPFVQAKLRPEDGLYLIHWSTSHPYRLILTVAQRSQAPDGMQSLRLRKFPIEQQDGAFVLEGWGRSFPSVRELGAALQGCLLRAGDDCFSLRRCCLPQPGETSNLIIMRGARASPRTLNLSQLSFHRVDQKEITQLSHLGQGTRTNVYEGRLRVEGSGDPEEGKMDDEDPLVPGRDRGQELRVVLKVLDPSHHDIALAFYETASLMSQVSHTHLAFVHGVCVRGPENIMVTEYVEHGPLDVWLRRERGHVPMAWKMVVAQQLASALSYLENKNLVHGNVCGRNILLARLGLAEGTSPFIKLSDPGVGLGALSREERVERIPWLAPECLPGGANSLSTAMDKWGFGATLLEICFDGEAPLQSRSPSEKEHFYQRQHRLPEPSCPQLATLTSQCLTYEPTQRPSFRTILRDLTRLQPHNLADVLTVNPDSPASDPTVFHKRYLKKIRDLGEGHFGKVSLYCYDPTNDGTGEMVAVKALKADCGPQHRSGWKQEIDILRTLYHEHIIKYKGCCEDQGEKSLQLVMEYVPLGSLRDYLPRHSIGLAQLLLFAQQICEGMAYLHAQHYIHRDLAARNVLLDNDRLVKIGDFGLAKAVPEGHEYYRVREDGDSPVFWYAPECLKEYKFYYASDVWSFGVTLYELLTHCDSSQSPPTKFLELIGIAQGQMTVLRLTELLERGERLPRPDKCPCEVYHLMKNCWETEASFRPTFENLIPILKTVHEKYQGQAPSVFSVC

Turning to `CNc1cc(N2CCc3c(N4CC(CN5CCN(C6CCN(C(=O)c7ccc(Cl)c(N8CCC(=O)NC8=O)c7)CC6)CC5)C4)cccc32)nn2c(C(=O)N[C@@H]3C[C@@H]3F)cnc12` [I-787], for the setting “OCI-LY10 cells”, the “TYK2 MSD OCI-LY10 Dmax %” value is reported as “D (D (<50%))” and the DC50 was above 100 nM.
On to `CNc1cc(-c2cn(C3CCN(CC4CCN(C(=O)c5ccc(Cl)c(N6CCC(=O)NC6=O)c5)CC4)CC3)c3ccccc23)nn2c(C(=O)N[C@@H]3C[C@@H]3F)cnc12` [I-789], for which, under “OCI-LY10 cells”, the “TYK2 MSD OCI-LY10 Dmax %” value was “D (D (<50%))” and the DC50 was above 100 nM.
On to `CNc1cc(N2CCc3c(CN4CCC(N5CC(C6CCN(C(=O)c7ccc(Cl)c(N8CCC(=O)NC8=O)c7)CC6)C5)C(F)(F)C4)cccc32)nn2c(C(=O)N[C@@H]3C[C@@H]3F)cnc12` (stereo partly shown) [I-791], for which, under “OCI-LY10 cells”, the “TYK2 MSD OCI-LY10 Dmax %” value is given as “A (A (>90%))” and the DC50 is below 1 nM.
Regarding `CNc1cc(N2CCc3c(-c4ccc(CN5CCC6(CCN(C(=O)c7cc(Cl)c(F)c(N8CCC(=O)NC8=O)c7)CC6)C(F)(F)C5)cn4)cccc32)nn2c(C(=O)N[C@@H]3C[C@@H]3F)cnc12` [I-792], under “OCI-LY10 cells”, the “TYK2 MSD OCI-LY10 Dmax %” value is reported as “B (B (90 to >75%))” and the DC50 is below 10 nM.
As to `CNc1cc(N2CCc3c(C#CCN4CCC(N5CC6(CN(C(=O)c7ccc(Cl)c(N8CCC(=O)NC8=O)c7)C6)C5)C(F)(F)C4)cccc32)nn2c(C(=O)N[C@@H]3C[C@@H]3F)cnc12` (stereo partly shown) [I-795], under setting [1], the “TYK2 MSD OCI-LY10 Dmax %” value is “A (A (>90%))” and the DC50 is below 1 nM.
As to `CNc1cc(N2CCc3c(-c4ccc(CN5CC6(CCN(C(=O)c7cc(C)c(C)c(N8CCC(=O)NC8=O)c7)CC6(F)F)C5)cn4)cccc32)nn2c(C(=O)N[C@@H]3C[C@@H]3F)cnc12` [I-796], under setting [1], the “TYK2 MSD OCI-LY10 Dmax %” value is reported as “A (A (>90%))” and the DC50 is below 1 nM.
`CNc1cc(N2CCc3c(-c4ccc(CN5CCC6(CCN(C(=O)c7cc(C)c(C)c(N8CCC(=O)NC8=O)c7)CC6)C(F)(F)C5)cn4)cccc32)nn2c(C(=O)N[C@@H]3C[C@@H]3F)cnc12` [I-797]: under setting [1], the “TYK2 MSD OCI-LY10 Dmax %” value was “A (A (>90%))” and the DC50 is below 1 nM.
On to `CNc1cc(-c2cn(C3CCN(C(=O)c4ccc(Cl)c(N5CCC(=O)NC5=O)c4)CC3)c3ccccc23)nn2c(C(=O)N[C@@H]3C[C@@H]3F)cnc12` [I-798], for which, under setting [1], the “TYK2 MSD OCI-LY10 Dmax %” value is on record as “D (D (<50%))” and the DC50 is above 100 nM.
In the same order, the values of `CNc1cc(N2CCc3c(-c4ncc(CN5CCC6(CCN(C(=O)c7cc(C)c(Cl)c(N8CCC(=O)NC8=O)c7)CC6)C(F)(F)C5)cn4)cccc32)nn2c(C(=O)N[C@@H]3C[C@@H]3F)cnc12` [I-799] are “B (B (90 to >75%))” and below 10 nM.
As to `CNc1cc(N2CCc3c(CC4CCC5(CC4)CCN(C4CCN(C(=O)c6ccc(Cl)c(N7CCC(=O)NC7=O)c6)CC4(F)F)CC5)cccc32)nn2c(C(=O)N[C@@H]3C[C@@H]3F)cnc12` (stereo partly shown) [I-800], under setting [1], the “TYK2 MSD OCI-LY10 Dmax %” value is given as “D (D (<50%))” and the DC50 is above 100 nM.
For the molecule `CNc1cc(N2CCc3c(CN4CCC(N5CCC6(CCN(C(=O)c7ccc(Cl)c(N8CCC(=O)NC8=O)c7)CC6)CC5)CC4)cccc32)nn2c(C(=O)N[C@@H]3C[C@@H]3F)cnc12` [I-802], under setting [1], the “TYK2 MSD OCI-LY10 Dmax %” value is “B (B (90 to >75%))” and the DC50 is below 10 nM.
As for `CNc1cc(N2CCc3c(CN4CCC(N5CCC(N6CCN(C(=O)c7ccc(Cl)c(N8CCC(=O)NC8=O)c7)CC6)C5)C(F)(F)C4)cccc32)nn2c(C(=O)N[C@@H]3C[C@@H]3F)cnc12` (stereo partly shown) [I-803], under setting [1], the “TYK2 MSD OCI-LY10 Dmax %” value was “A (A (>90%))” and the DC50 was below 1 nM.
For `CNc1cc(N2CCc3c(CN4CCC(N5CCC6(CCN(C(=O)c7ccc(Cl)c(N8CCC(=O)NC8=O)c7)CC6)C5)C(F)(F)C4)cccc32)nn2c(C(=O)N[C@@H]3C[C@@H]3F)cnc12` (stereo partly shown) [I-805], in that order: “A (A (>90%))” and below 1 nM.
In the same order, the values of `CNc1cc(N2CCc3c2cccc3C23CC(CN4CCC(N5CCC6(CCN(C(=O)c7ccc(Cl)c(N8CCC(=O)NC8=O)c7)CC6)CC5)C(F)(F)C4)(C2)C3)nn2c(C(=O)N[C@@H]3C[C@@H]3F)cnc12` (stereo partly shown) [I-807] are “B (B (90 to >75%))” and below 10 nM.
Take `CNc1cc(N2CCc3c(CN4CCC(N5CCC6(CCN(C(=O)c7ccc(Cl)c(N8CCC(=O)NC8=O)c7)CC6)CC5)C(F)(F)C4)cc(F)cc32)nn2c(C(=O)N[C@@H]3C[C@@H]3F)cnc12` (stereo partly shown) [I-808]: under setting [1], the “TYK2 MSD OCI-LY10 Dmax %” value was “A (A (>90%))” and the DC50 was below 1 nM.
As to `CNc1cc(N2CCc3c(CN4CCC(N5CCC6(CCN(C(=O)c7ccc(Cl)c(N8CCC(=O)NC8=O)c7)C6)C5)C(F)(F)C4)cccc32)nn2c(C(=O)N[C@@H]3C[C@@H]3F)cnc12` (stereo partly shown) [I-811], under setting [1], the “TYK2 MSD OCI-LY10 Dmax %” value is recorded as “A (A (>90%))” and the half-maximal degradation concentration (DC50) is below 1 nM.
Consider `CNc1cc(N2CCc3c(-c4ncc(CN5CC6(CCN(C(=O)c7cc(C)c(Cl)c(N8CCC(=O)NC8=O)c7)CC6(F)F)C5)cc4F)cccc32)nn2c(C(=O)N[C@@H]3C[C@@H]3F)cnc12` [I-813, 6-(4-(5-((7-(4-chloro-3-(2,4-dioxotetrahydropyrimidin-1(2H)-yl)-5-methylbenzoyl)-5,5-difluoro-2,7-diazaspiro[3.5]nonan-2-yl)methyl)-3-fluoropyridin-2-yl)indolin-1-yl)-N-((1R,2S)-2-fluorocyclopropyl)-8-(methylamino)imidazo[1,2-b]pyridazine-3-carboxamide], for which, under setting [1], the Dmax was above 90% and the DC50 is below 1 nM.
Turning to `CNc1cc(N2CCc3c(-c4ccc(CN5CCC6(CCN(C(=O)c7cc(C)c(Cl)c(N8CCC(=O)NC8=O)c7)CC6)C(F)(F)C5)cn4)cc(F)cc32)nn2c(C(=O)N[C@@H]3C[C@@H]3F)cnc12` [I-815], under setting [1], the “TYK2 MSD OCI-LY10 Dmax %” value is listed as “B (B (90 to >75%))” and the DC50 is below 10 nM.
On to `CNc1cc(N2CCc3c(-c4ccc(CN5CCC6(CCN(C(=O)c7cc(C)c(Cl)c(N8CCC(=O)NC8=O)c7)CC6)C(F)(F)C5)cn4)cccc32)nc2c(C(=O)N[C@@H]3C[C@@H]3F)cnn12` [I-816], for which, under setting [1], the “TYK2 MSD OCI-LY10 Dmax %” value is given as “B (B (90 to >75%))” and the DC50 is below 10 nM.
Consider `CNc1cc(N2CCc3c(-c4ncc(CN5CCC6(CCN(C(=O)c7cc(C)c(Cl)c(N8CCC(=O)NC8=O)c7)CC6)C(F)(F)C5)cc4F)cccc32)nn2c(C(=O)N[C@@H]3C[C@@H]3F)cnc12` [I-818], for which, under setting [1], the “TYK2 MSD OCI-LY10 Dmax %” value is given as “B (B (90 to >75%))” and the DC50 was below 10 nM.
As to `CNc1cc(N2CCc3c(CC4CCN(C5CCC6(CC5)CCN(C(=O)c5ccc(Cl)c(N7CCC(=O)NC7=O)c5)CC6)CC4)cccc32)nn2c(C(=O)N[C@@H]3C[C@@H]3F)cnc12` [I-820], under setting [1], the “TYK2 MSD OCI-LY10 Dmax %” value is given as “B (B (90 to >75%))” and the DC50 was below 10 nM.
As for `CNc1cc(N2CCc3c2cccc3C23CC(CN4CCN(C5CCN(C(=O)c6ccc(Cl)c(N7CCC(=O)NC7=O)c6)CC5)CC4)(C2)C3)nn2c(C(=O)N[C@@H]3C[C@@H]3F)cnc12` [I-823], under setting [1], the “TYK2 MSD OCI-LY10 Dmax %” value is “A (A (>90%))” and the DC50 was below 1 nM.
For `CNc1cc(N2CCc3c(-c4ccc(CN5CCC6(CCN(C(=O)c7ccc(Cl)c(N8CCC(=O)NC8=O)c7)CC6)C(F)(F)C5)cn4)cccc32)nn2c(C(=O)NC3CCC3)cnc12` [I-824], under setting [1], the “TYK2 MSD OCI-LY10 Dmax %” value is recorded as “B (B (90 to >75%))” and the DC50 was below 10 nM.
`CNc1cc(N2CCc3c2cccc3C23CC(CN4CCN(C5CCN(C(=O)c6ccc(Cl)c(N7CCC(=O)NC7=O)c6)CC5(F)F)CC4)(C2)C3)nn2c(C(=O)N[C@@H]3C[C@@H]3F)cnc12` (stereo partly shown) [I-832]: under setting [1], the “TYK2 MSD OCI-LY10 Dmax %” value was “A (A (>90%))” and the DC50 is below 1 nM.
As for `CNc1cc(N2CCc3c(CN4CCC5(CC4)CCN(C4CCN(C(=O)c6ccc(Cl)c(N7CCC(=O)NC7=O)c6)CC4)CC5(F)F)cccc32)nn2c(C(=O)N[C@@H]3C[C@@H]3F)cnc12` [I-833], under setting [1], the “TYK2 MSD OCI-LY10 Dmax %” value was “B (B (90 to >75%))” and the DC50 is below 10 nM.
As for `CNc1cc(N2CCc3c(-c4ccc(CN5CCC6(CCN(C(=O)c7cc(Cl)cc(N8CCC(=O)NC8=O)c7)CC6)C(F)(F)C5)cn4)cccc32)nn2c(C(=O)N[C@@H]3C[C@@H]3F)cnc12` [I-835], under setting [1], the “TYK2 MSD OCI-LY10 Dmax %” value was “B (B (90 to >75%))” and the DC50 was below 10 nM.
In the case of `CNc1cc(N2CCc3c(CN4CCC5(CCN(C6CCN(C(=O)c7ccc(Cl)c(N8CCC(=O)NC8=O)c7)CC6)CC5)C(F)(F)C4)cccc32)nn2c(C(=O)N[C@@H]3C[C@@H]3F)cnc12` [I-836], under setting [1], the “TYK2 MSD OCI-LY10 Dmax %” value is reported as “B (B (90 to >75%))” and the DC50 was below 10 nM.
In the same order, the values of `CNc1cc(N2CCc3c(CN4CCC(N5CC6(CCN(C(=O)c7ccc(Cl)c(N8CCC(=O)NC8=O)c7)CC6)C5)C(F)(F)C4)cccc32)nn2c(C(=O)N[C@@H]3C[C@@H]3F)cnc12` (stereo partly shown) [I-840] are “A (A (>90%))” and below 1 nM.
In the case of `CNc1cc(N2CCc3c(CN4CCC(N5CCC6(CCN(C(=O)c7cc(N8CCC(=O)NC8=O)c(Cl)cc7F)CC6)CC5)C(F)(F)C4)cccc32)nn2c(C(=O)N[C@@H]3C[C@@H]3F)cnc12` (stereo partly shown) [I-841], under setting [1], the “TYK2 MSD OCI-LY10 Dmax %” value was “A (A (>90%))” and the DC50 is below 1 nM.
For `COC1(c2cc(C)cc(-c3cn(C4CCN(CC5CCN(c6ccc(NC7CCC(=O)NC7=O)c(F)c6)CC5)CC4)c4cnc(NC(C)=O)cc34)n2)CCOC1` (stereo not shown) [I-842], in that order: “A (A (>90%))” and below 1 nM.
As for `CNc1cc(N2CCc3c(CN4CCC(N5CCC6(CCN(C(=O)c7cc(F)c(C)c(N8CCC(=O)NC8=O)c7)CC6)CC5)C(F)(F)C4)cccc32)nn2c(C(=O)N[C@@H]3C[C@@H]3F)cnc12` (stereo partly shown) [I-843], under setting [1], the “TYK2 MSD OCI-LY10 Dmax %” value is recorded as “A (A (>90%))” and the DC50 is below 1 nM.
In the same order, the values of `CNc1cc(N2CCc3c(CN4CCC(N5CCC6(CCN(Cc7ccc(Cl)c(N8CCC(=O)NC8=O)c7)CC6)CC5)C(F)(F)C4)cccc32)nn2c(C(=O)N[C@@H]3C[C@@H]3F)cnc12` (stereo partly shown) [I-844] are “B (B (90 to >75%))” and below 10 nM.
